Laboratory results: publication PMC10073911, “N-Arylacetamide derivatives of methyl 1,2-benzothiazine-3-carboxylate as potential drug candidates for urease inhibition” (Royal Society Open Science, 2023)
Values joined by “and” are separate entries in the source; they are usually repeats but may differ in a detail not shown here. Equal entries are not always repeated. Where two headings read alike, the source gives them in different places.

Assays:
urease = urease (Canavalia ensiformis, UniProt P07374); test: biochemical; conditions: indophenol method, urea substrate 100 mM, absorbance at 630 nm, triplicate
[1] = urease inhibition IC50 ± s.e.m.
[2] = read-out: urease inhibition IC50 ± s.e.m.

urease, sequence (P07374 whole entry, looked up): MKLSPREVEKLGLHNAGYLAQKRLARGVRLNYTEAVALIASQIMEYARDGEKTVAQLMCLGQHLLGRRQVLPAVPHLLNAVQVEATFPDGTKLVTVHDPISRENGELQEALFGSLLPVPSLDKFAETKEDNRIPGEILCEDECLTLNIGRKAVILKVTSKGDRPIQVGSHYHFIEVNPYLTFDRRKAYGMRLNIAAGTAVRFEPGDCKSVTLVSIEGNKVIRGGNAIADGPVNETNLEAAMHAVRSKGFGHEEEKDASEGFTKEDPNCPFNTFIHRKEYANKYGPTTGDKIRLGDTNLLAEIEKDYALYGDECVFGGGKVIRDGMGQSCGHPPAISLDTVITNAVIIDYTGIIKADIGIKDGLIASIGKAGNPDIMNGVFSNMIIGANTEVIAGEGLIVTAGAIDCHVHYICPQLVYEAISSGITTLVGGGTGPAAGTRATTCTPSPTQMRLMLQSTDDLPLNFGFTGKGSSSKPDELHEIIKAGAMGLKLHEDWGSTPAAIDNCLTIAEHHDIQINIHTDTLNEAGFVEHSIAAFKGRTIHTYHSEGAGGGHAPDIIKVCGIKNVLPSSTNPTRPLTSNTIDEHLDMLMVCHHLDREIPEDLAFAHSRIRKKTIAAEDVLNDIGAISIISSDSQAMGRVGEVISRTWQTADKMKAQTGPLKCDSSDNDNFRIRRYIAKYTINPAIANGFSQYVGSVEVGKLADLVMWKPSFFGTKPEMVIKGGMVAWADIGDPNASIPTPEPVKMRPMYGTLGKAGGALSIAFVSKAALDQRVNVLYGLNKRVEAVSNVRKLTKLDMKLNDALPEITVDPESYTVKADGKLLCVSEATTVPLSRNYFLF

SMILES: COC(=O)C1=C(O)c2ccccc2S(=O)(=O)N1CC(=O)Nc1ccccc1 [5a, Methyl 4-hydroxy-2-(2-oxo-2-(phenylamino)ethyl)-2H-benzo[e][1,2]thiazine-3-carboxylate 1,1-dioxide]
- melting point: 188 to 190 °C
- IC50 (urease; [1]): 10.1 ± 0.9 µM

SMILES: COC(=O)C1=C(O)c2ccccc2S(=O)(=O)N1CC(=O)Nc1ccccc1OC [5b, Methyl 4-hydroxy-2-(2-((2-methoxyphenyl)amino)-2-oxoethyl)-2H-benzo[e][1,2]thiazine-3-carboxylate 1,1-dioxide]
- IC50 (urease; [1]): 14.9 ± 1.5 µM

SMILES: COC(=O)C1=C(O)c2ccccc2S(=O)(=O)N1CC(=O)Nc1ccccc1C [5c, Methyl 4-hydroxy-2-(2-oxo-2-(o-tolylamino)ethyl)-2H-benzo[e][1,2]thiazine-3-carboxylate 1,1-dioxide]
- melting point: 172 to 174 °C
- IC50 (urease; [1]): 17.2 ± 1.1 µM

SMILES: COC(=O)C1=C(O)c2ccccc2S(=O)(=O)N1CC(=O)Nc1ccccc1C(=O)OC [5d, Methyl 4-hydroxy-2-(2-((2-(methoxycarbonyl)phenyl)amino)-2-oxoethyl)-2H-benzo[e][1,2]thiazine-3-carboxylate 1,1-dioxide]
- melting point: 178 to 180 °C
- IC50 (urease; [1]): 14.1 ± 0.12 µM

SMILES: COC(=O)C1=C(O)c2ccccc2S(=O)(=O)N1CC(=O)Nc1cccc(OC)c1 [5e, Methyl 4-hydroxy-2-(2-((3-methoxyphenyl)amino)-2-oxoethyl)-2H-benzo[e][1, 2]thiazine-3-carboxylate 1,1-dioxide]
- IC50 (urease; [2]): 18.2 ± 1.69 µM

SMILES: COC(=O)C1=C(O)c2ccccc2S(=O)(=O)N1CC(=O)Nc1cccc(C)c1 [5f, Methyl 4-hydroxy-2-(2-oxo-2-(m-tolylamino)ethyl)-2H-benzo[e][1,2]thiazine-3-carboxylate 1,1-dioxide]
- melting point: 192 to 194 °C
- IC50 (urease; [1]): 15.5 ± 1.35 µM

SMILES: COC(=O)C1=C(O)c2ccccc2S(=O)(=O)N1CC(=O)Nc1ccc(OC)cc1 [5g, Methyl 4-hydroxy-2-(2-((4-methoxyphenyl)amino)-2-oxoethyl)-2H-benzo[e][1,2]thiazine-3-carboxylate 1,1-dioxide]
- melting point: 176 to 178 °C
- IC50 (urease; [1]): 20.4 ± 1.81 µM

SMILES: COC(=O)C1=C(O)c2ccccc2S(=O)(=O)N1CC(=O)Nc1ccc(C)cc1 [5h, Methyl 4-hydroxy-2-(2-oxo-2-(p-tolylamino)ethyl)-2H-benzo[e][1,2]thiazine-3-carboxylate 1,1-dioxide]
- IC50 (urease; [1]): 16.4 ± 1.4 µM

SMILES: COC(=O)C1=C(O)c2ccccc2S(=O)(=O)N1CC(=O)Nc1ccc(Cl)cc1 [5i, Methyl 2-(2-((4-chlorophenyl)amino)-2-oxoethyl)-4-hydroxy-2H-benzo[e][1,2]thiazine-3-carboxylate 1,1-dioxide]
- IC50 (urease; [1]): 20.7 ± 0.25 µM

SMILES: COC(=O)C1=C(O)c2ccccc2S(=O)(=O)N1CC(=O)Nc1ccc([N+](=O)[O-])cc1 [5j, Methyl 4-hydroxy-2-(2-((4-nitrophenyl)amino)-2-oxoethyl)-2H-benzo[e][1,2]thiazine-3-carboxylate 1,1-dioxide]
- melting point: 192 to 194 °C
- IC50 (urease; [1]): 17.1 ± 1.45 µM

SMILES: CCOC(=O)c1ccc(NC(=O)CN2C(C(=O)OC)=C(O)c3ccccc3S2(=O)=O)cc1 [5k, Methyl 2-(2-((4-(ethoxycarbonyl)phenyl)amino)-2-oxoethyl)-4-hydroxy-2H-benzo[e][1,2]thiazine-3-carboxylate 1,1-dioxide]
- IC50 (urease; [1]): 9.8 ± 0.023 µM

SMILES: COC(=O)C1=C(O)c2ccccc2S(=O)(=O)N1CC(=O)Nc1ccc(NC(C)=O)cc1 [5l, Methyl 2-(2-((4-acetamidophenyl)amino)-2-oxoethyl)-4-hydroxy-2H-benzo[e][1,2]thiazine-3-carboxylate 1,1-dioxide]
- IC50 (urease; [1]): 12.6 ± 0.1 µM

SMILES: COC(=O)C1=C(O)c2ccccc2S(=O)(=O)N1CC(=O)Nc1cccc(Cl)c1Cl [5m, Methyl 2-(2-((2,3-dichlorophenyl)amino)-2-oxoethyl)-4-hydroxy-2H-benzo[e][1,2]thiazine-3-carboxylate 1,1-dioxide]
- melting point: 154 to 156 °C
- IC50 (urease; [1]): 14 µM and 14.1 µM

SMILES: COC(=O)C1=C(O)c2ccccc2S(=O)(=O)N1CC(=O)Nc1ccc(Cl)cc1Cl [5n, Methyl 2-(2-((2,4-dichlorophenyl)amino)-2-oxoethyl)-4-hydroxy-2H-benzo[e][1,2]thiazine-3-carboxylate 1,1-dioxide]
- IC50 (urease; [1]): 13 µM and 13.1 µM

SMILES: NC(N)=S [thiourea, reference compound]
- IC50 (urease; [2]): 22.3 ± 0.031 µM
